Here are results for six compounds from patent US5955440A, “Macrolide LHRH antagonists” (Abbott Laboratories, priority 1998, dated 1999).

Molecules are shown by their SMILES.

The target in assay [1] is T1, LHRH rat pituitary receptor (Rattus norvegicus, UniProt P30969).
T1 construct: from tissue; host or cells: rat pituitary
T1 sequence (P30969 1-327): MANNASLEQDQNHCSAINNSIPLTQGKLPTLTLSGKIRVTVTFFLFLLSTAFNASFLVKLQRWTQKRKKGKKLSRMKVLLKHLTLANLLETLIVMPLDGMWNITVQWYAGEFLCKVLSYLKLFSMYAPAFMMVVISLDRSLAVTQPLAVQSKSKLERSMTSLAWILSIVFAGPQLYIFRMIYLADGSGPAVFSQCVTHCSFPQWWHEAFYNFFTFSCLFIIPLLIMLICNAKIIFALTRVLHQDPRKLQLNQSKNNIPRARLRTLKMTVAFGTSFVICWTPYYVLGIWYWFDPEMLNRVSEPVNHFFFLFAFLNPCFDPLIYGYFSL
Briefly: LHRH rat pituitary receptor binding (pKI). Conditions: negative logarithm of the equilibrium dissociation constants, Table 1, read-out: receptor binding affinity (pKI) (converted). The procedure: (§1) Representative compounds of the present invention were evaluated in in vitro tests for LHRH rat pituitary receptor binding (pKI) and for LH inhibition from rat pituitary cells for antagonist potency (pA2). The tests employed the methods detailed in F. Haviv, et al. J. Med. Chem., 32: 2340-2344 (1989). The receptor binding affinity (pKI) is the negative logarithm of the equilibrium dissociation constants.

A further assay concerns the target T2, rat pituitary cells (Rattus norvegicus, UniProt P30969).
T2 construct: endogenous in cells; host or cells: rat pituitary cells
T2 sequence (P30969 1-327): T1 sequence (P30969 1-327)
Briefly: LH inhibition from rat pituitary cells, antagonist potency (pA2). Type of assay: cell-based. Conditions: negative log of antagonist concentration shifting the leuprolide response curve to two-fold higher concentration, Table 2. On the procedure:
as §1
The pA2 value is the negative logarithm of the concentration of antagonist which shifts the response curve produced by the agonist leuprolide to two-fold higher concentration. Leuprolide is the LHRH agonist having the structure pyro-Glu^1 -His^2 -Trp^3 -Ser^4 -Tyr^5 -D-Leu^6 -Leu^7 -Arg^8 -Pro^9 -NHEt and is disclosed and claimed in U.S. Pat. No. 4,005,063. Typically pA2 values of 7.0 or greater are indicative of good LHRH antagonist potency.

For `CC[C@H]1OC(=O)[C@H](C)[C@@H](O[C@H]2C[C@@](C)(OC)[C@@H](O)[C@H](C)O2)[C@H](C)[C@@H](O[C@@H]2O[C@H](C)C[C@H](N(C)C(C)C)[C@H]2O)[C@](C)(OC)C[C@@H](C)C(=O)[C@H](C)[C@H]2N(CCc3ccc(F)c(Cl)c3)C(=O)O[C@]12C` [Example 28, 3'-N-Desmethyl-3'-N-isopropyl-11-deoxy-11-[carboxy-(3-chloro-4-fluorophenethylamino)]-6-O-methyl-erythromycin A 11,12-(cyclic carbamate)], in assay [1], the Ki was 0.324 nM. In addition, at rat pituitary cells, the Kb was 3.02 nM.

As for `CC[C@H]1OC(=O)[C@H](C)[C@@H](O[C@H]2C[C@@](C)(OC)[C@@H](O)[C@H](C)O2)[C@H](C)[C@@H](O[C@@H]2O[C@H](C)C[C@H](N(C)C3CCCC3)[C@H]2O)[C@](C)(OC)C[C@@H](C)C(=O)[C@H](C)[C@H]2N(CCc3ccc(Cl)c(Cl)c3)C(=O)O[C@]12C` [Example 1, 3'-N-Desmethyl-3'-N-cyclopentyl-11-deoxy-11-[carboxy-(3,4-dichlorophenethylamino)]-6-O-methyl-erythromycin A 11,12-(cyclic carbamate)], the Ki in assay [1] is 0.813 nM. Further, the antagonist dissociation constant (Kb) at rat pituitary cells was 0.794 nM.

With `CCCN(C)[C@H]1C[C@@H](C)O[C@@H](O[C@@H]2[C@@H](C)[C@H](O[C@H]3C[C@@](C)(OC)[C@@H](O)[C@H](C)O3)[C@@H](C)C(=O)O[C@H](CC)[C@@]3(C)OC(=O)N(CCc4ccc(Cl)c(F)c4)[C@@H]3[C@@H](C)C(=O)[C@H](C)C[C@@]2(C)OC)[C@@H]1O` [Example 16, 3'-N-Desmethyl-3'-N-n-propyl-11-deoxy-11-[carboxy-(4-chloro-3-fluorophenethylamino)]-6-O-methyl-erythromycin A 11,12-(cyclic carbamate)], the Ki in assay [1] is 3.98 nM. Also, the Kb on rat pituitary cells was 32.4 nM.

On to `CC[C@H]1OC(=O)[C@H](C)[C@@H](O[C@H]2C[C@@](C)(OC)[C@@H](O)[C@H](C)O2)[C@H](C)[C@@H](O[C@@H]2O[C@H](C)C[C@H](N(C)C(C)C)[C@H]2O)[C@](C)(OC)C[C@@H](C)C(=O)[C@H](C)[C@H]2N(CCc3ccc(Cl)cc3)C(=O)O[C@]12C` [Example 22, 3'-N-Desmethyl-3'-N-isopropyl-11-deoxy-11-[carboxy-(4-chlorophenethylamino)]-6-O-methyl-erythromycin A 11,12-(cyclic carbamate)], for which the Ki in assay [1] is 4.47 nM. For the same compound, the Kb at rat pituitary cells is 30.2 nM.

Regarding `CCCN(C)[C@H]1C[C@@H](C)O[C@@H](O[C@@H]2[C@@H](C)[C@H](O[C@H]3C[C@@](C)(OC)[C@@H](O)[C@H](C)O3)[C@@H](C)C(=O)O[C@H](CC)[C@@]3(C)OC(=O)N(CCc4cccc(Cl)c4)[C@@H]3[C@@H](C)C(=O)[C@H](C)C[C@@]2(C)OC)[C@@H]1O` [Example 25, 3'-N-Desmethyl-3'-N-n-propyl-11-deoxy-11-[carboxy-(3-chlorophenethylamino)]-6-O-methyl-erythromycin A 11,12-(cyclic carbamate)], the Ki in assay [1] is 4.17 nM. For the same compound, the antagonist dissociation constant (Kb) at rat pituitary cells was 37.2 nM.

As for `CC[C@H]1OC(=O)[C@H](C)[C@@H](O[C@H]2C[C@@](C)(OC)[C@@H](O)[C@H](C)O2)[C@H](C)[C@@H](O[C@@H]2O[C@H](C)C[C@H](N(C)CC3CC3)[C@H]2O)[C@](C)(OC)C[C@@H](C)C(=O)[C@H](C)[C@H]2N(CCc3ccc(F)c(Cl)c3)C(=O)O[C@]12C` [Example 29, 3'-N-Desmethyl-3'-N-cyclopropylmethyl-11-deoxy-11-(3-chloro-4-fluorophenethylamino)-6-O-methyl-erythromycin A 11,12-(cyclic carbamate)], the Ki in assay [1] was 0.537 nM. The antagonist equilibrium constant (Kb) at rat pituitary cells was 1.07 nM.

The term Kb denotes the equilibrium dissociation constant of an antagonist, usually derived from a functional assay.
